Experimental data: US20170007559A1, “COMPOSITIONS AND METHODS FOR PROTECTING COLONIC EPITHELIAL BARRIER FUNCTION” (The University of Tennessee Research Foundation, priority 2015, published 2017)

Legend:
[1] = tested on: intestinal mucosal barrier function; experiment: Gut permeability in vivo, vascular-to-luminal flux of FITC-inulin after total body irradiation; parameters: species or system mouse
Description: In the first study, adult female (12-14 week's age) mice were subjected to total body irradiation (4 Gy). At 2-24 hours post-irradiation (IR), the integrity of colonic epithelial TJs, AJs and actin cytoskeleton was examined. In a second study, mice were randomized to four groups: Sham (control), IR, NAC and NAC+IR, and fed a liquid diet with (NAC and NAC+IR) or without (Sham and IR) 20 mM NAC for 5 days prior to irradiation. IR and NAC+IR mice were subjected to total body irradiation (4 Gy), while Sham and NAC mice were sham-treated. At 2 hours post-irradiation, colon and ileum were collected and examined for oxidative stress and epithelial junctional integrity. At the end of experiment, gut permeability was measured as described below. Colon and ileum segments were stored frozen for further analyses. Mucosal barrier dysfunction was evaluated by measuring gut permeability to FITC-inulin (6 kDa). On the last day of experiment, mice were intravenously injected with FITC-inulin (50 mg/ml solution; 2 μl/g body weight) via tail vein. One hour after injection, blood samples were collected by cardiac puncture under isoflurane anesthesia for plasma preparation. Luminal contents from colon and ileum were flushed with 0.9% saline. Fluorescence in plasma and luminal flushing was measured using fluorescence plate reader. Fluorescence values in the luminal flushing were normalized to fluorescence values in corresponding plasma samples and calculated as percent of amount injected.

[2] = tested on: reduced and oxidized protein thiols; experiment: Protein thiol assay in colon and ileum after total body irradiation; type: in vivo, mouse; settings: TBI 4 Gy, 2 hours post irradiation
Description: In the first study, adult female (12-14 week's age) mice were subjected to total body irradiation (4 Gy). At 2-24 hours post-irradiation (IR), the integrity of colonic epithelial TJs, AJs and actin cytoskeleton was examined. In a second study, mice were randomized to four groups: Sham (control), IR, NAC and NAC+IR, and fed a liquid diet with (NAC and NAC+IR) or without (Sham and IR) 20 mM NAC for 5 days prior to irradiation. IR and NAC+IR mice were subjected to total body irradiation (4 Gy), while Sham and NAC mice were sham-treated. At 2 hours post-irradiation, colon and ileum were collected and examined for oxidative stress and epithelial junctional integrity. At the end of experiment, gut permeability was measured as described below. Colon and ileum segments were stored frozen for further analyses. Protein thiols in colonic sections were assessed as described before. Reduced protein thiols were evaluated by staining cryosections colon with BODIPY FL-N-(2-aminoethyl) maleimide (Flm) and confocal microscopy at excitation and emission wavelengths, 490 nm and 534 nm, respectively. For oxidized protein thiols, the reduced protein thiol was first alkylated with N-ethylmaleimide followed by reduction of oxidized protein thiols with tris (2-carboxyethyl) phosphine prior to staining with Flm. […] Fluorescence images collected and fluorescence quantitated by Image J software.

[3] = tested on: colonic epithelial TJs, AJs and actin cytoskeleton; experiment: Immunofluorescence of TJ and AJ proteins and F-actin in mouse intestine after total body irradiation (4 Gy); type: in vivo; settings: 20 mM NAC in liquid diet for 5 days prior to TBI 4 Gy, 2 hours post irradiation
Description: (§1) In the first study, adult female (12-14 week's age) mice were subjected to total body irradiation (4 Gy). At 2-24 hours post-irradiation (IR), the integrity of colonic epithelial TJs, AJs and actin cytoskeleton was examined. In a second study, mice were randomized to four groups: Sham (control), IR, NAC and NAC+IR, and fed a liquid diet with (NAC and NAC+IR) or without (Sham and IR) 20 mM NAC for 5 days prior to irradiation. IR and NAC+IR mice were subjected to total body irradiation (4 Gy), while Sham and NAC mice were sham-treated. At 2 hours post-irradiation, colon and ileum were collected and examined for oxidative stress and epithelial junctional integrity. At the end of experiment, gut permeability was measured as described below. Colon and ileum segments were stored frozen for further analyses.
Cryo-sections of colon (10 μm thickness) and ileum (12 μm thickness) were fixed in acetone methanol mixture (1:1) at […] for 2 min and rehydrated in phosphate buffered saline (PBS). Sections were permeabilized with 0.5% Triton X-100 in PBS for 15 min and blocked in 4% non-fat milk in TBST (20 mM Tris, pH 7.2 and 150 mM NaCl). It was then incubated for one hour with primary antibodies (mouse monoclonal anti-occludin and rabbit polyclonal anti-ZO-1 antibodies or mouse monoclonal E-cadherin and rabbit polyclonal anti-β-catenin antibodies), followed by incubation for one hour with secondary antibodies (AlexaFluor-488-conjugated anti-mouse IgG and Cy3-conjugated anti-rabbit IgG antibodies from Molecular Probes, Eugene, Oreg.) containing Hoechst 33342. The fluorescence was examined by using a confocal microscope (Zeiss 710) and images from x-y sections (1 μm) were collected using Zen software. Images were stacked using the Image J software (NIH) and processed by Adobe Photoshop (Adobe Systems Inc., San Jose, Calif.).
Studies were performed to evaluate the effect of RP-1 on radiation-induced redistribution of TJ and AJ proteins in mouse colon in vivo. Mice were subjected to TBI (4 Gy); in some groups, animals received a one-time injection of RP-1 (0.1 mg/kg) 30 min prior to IRR. At 2 hours post-IRR, cryosections of colon were stained for TJ and AJ proteins, images collected by confocal microscopy and fluorescence measured by densitometric analysis.

[4] = tested on: detergent-insoluble fractions of TJ and AJ proteins; experiment: Immunoblot of TJ and AJ proteins in detergent-insoluble fraction of distal colonic mucosa after total body irradiation; type: in vivo, mouse; settings: 20 mM NAC in liquid diet for 5 days prior to TBI 4 Gy, 2 hours post irradiation
Description: as §1, with “Colon and ileum segments were stored frozen for further analyses.” left out
Actin-rich detergent-insoluble fraction was prepared as described previously (Elias, B. C.; Suzuki, T.; Seth, A.; Giorgianni, F.; Kale, G.; Shen, L.; Turner, J. R.; Naren, A.; Desiderio, D. M.; Rao, R. Phosphorylation of Tyr-398 and Tyr-402 in occludin prevents its interaction with ZO-1 and destabilizes its assembly at the tight junctions. J Biol Chem 284:1559-1569; 2009; Kale, G.; Naren, A. P.; Sheth, P.; Rao, R. K. Tyrosine phosphorylation of occludin attenuates its interactions with ZO-1, ZO-2, and ZO-3. Biochem Biophys Res Commun 302:324-329; 2003.). […] Protein content was measured by BCA method (Pierce Biotechnology, Rockford, Ill.). […]

Caco-2 cell monolayers = experiment: Radiation-induced redistribution of TJ proteins in Caco-2 cell monolayers; type: cell-based; settings: NAC 10 mM pretreatment for one hour, radiation 4 Gy
Description: Therefore, we evaluated the effect of radiation on barrier function and TJ proteins in Caco-2 and m-ICC12 cell monolayers in vitro. Barrier function was evaluated by measuring transepithelial electrical resistance (TER) and transepithelial flux of FITC-inulin in cell monolayers grown on transwell inserts. Cell monolayers were also fixed and stained for occludin and ZO-1 for confocal microscopy.
The effect of LPA was also tested in m-ICC12 cells at varying doses of radiation. LPA blocked IRR-induced redistribution of ZO-1 (FIG. 14C). […] These models can be used for further mechanistic studies.

colonic loops = experiment: Inulin absorption from the lumen of isolated colonic loops of irradiated mice; type: in vivo, mouse; settings: loops prepared 3 hours post irradiation from NAC-fed, incubated 75 min
Description: At 3 hours post irradiation, colonic loops were prepared and filled with 0.15 ml of 0.9% saline containing FITC-inulin (0.05 mg/ml) and incubated for 75 min in an incubator. Luminal contents were measured for fluorescence to evaluate inulin absorption from colonic lumen.

CC(=O)N[C@@H](CS)C(=O)O [NAC, N-acetyl L-cysteine]
mucosal permeability in colon or ileum, NAC by itself ([1]; NAC-fed, sham-treated mice (no irradiation)): no significant influence | radiation-induced increase in colonic mucosal permeability to FITC-inulin ([1]; colon, 20 mM NAC in liquid diet for 5 days prior to TBI 4 Gy, in vivo flux): effectively attenuated | radiation-induced increase in inulin permeability in the ileum ([1]; ileum, NAC supplementation in diet prior to TBI 4 Gy, in vivo flux): blocked | radiation-induced decrease in stain for reduced protein thiols and increase in stain for oxidized protein thiols ([2]; NAC fed mice, confocal images): absent | radiation-induced conversion of reduced protein thiols into oxidized protein thiols, densitometric analysis of fluorescence ([2]; NAC feeding): attenuates | radiation-induced redistribution of Cldn-3 ([3]; colon and ileum): blocked | radiation-induced redistribution of E-cadherin and β-catenin from the intercellular junctions ([3]; colon and ileum): absent | radiation-induced redistribution of occludin and ZO-1 from the intercellular junctions ([3]; colon and ileum): almost a complete attenuation | radiation-induced loss of F-actin (actin cytoskeleton), colon ([3]; colon): almost complete | radiation-induced loss of F-actin (actin cytoskeleton), ileum ([3]; ileum): only partially protected | radiation-induced loss of detergent-insoluble fractions of TJ and AJ proteins [4]: blocked | radiation-induced loss of junctional occludin and ZO-1 (Caco-2 cell monolayers): significantly blocked | radiation-induced increase in inulin absorbed from the lumen of colonic loops (colonic loops): absent
